Here are results for two substances from patent publication US11110167B2 (priority 2011, dated 2021).

In the experiment the test system is human peripheral blood mononuclear cells (PBMC). The class given is cell-based.

Turning to lipopolysaccharide [LPS], the “IL-1α and IL-1β mean gene expression upregulated” value was found to be 4.4 fold; the PPARg gene expression result was “consistently downregulated”.

Consider “polyinosinic:polycytidylic acid [Poly(I:C)]”, for which the “IL-1α and IL-1β mean gene expression upregulated” value turned out to be 4.1 fold; the PPARg gene expression entry is “consistently downregulated”.
